Assay results: PubChem BioAssay AID248 (DTP/NCI, 2004)
Values joined by “and” are separate entries in the source; they are usually repeats but may differ in a detail not shown here. Equal values may be shown once. Toxic doses and inconclusive results are not listed. Rule as the data show it: active = T/C of 150% or more; inactive = T/C below 125%.

System: L1210 leukemia ip in BDF1 mice, survival T/C
Test: NCI In Vivo Anticancer Drug Screen. Data for tumor model L1210 Leukemia (intraperitoneal) in B6D2F1 (BDF1) mice
Details: endpoint: mean survival time, higher = longer survival
Method in brief: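 Mice bearing the transplanted tumor received compound or vehicle. Survival of the treated group was divided by that of the vehicle-treated control group to give the ratio.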

[1] = dose: 25.0 mg/kg/injection, schedule: Q04DX003 (ip), vehicle: saline with Tween-80
[2] = dose: 50.0 mg/kg/injection, schedule: Q04DX003 (ip), vehicle: saline with Tween-80
[3] = dose: 100.0 mg/kg/injection, schedule: Q04DX003 (ip), vehicle: saline with Tween-80
[4] = dose: 100.0 mg/kg/injection, schedule: Q04DX003 (ip), vehicle: saline
[5] = dose: 200.0 mg/kg/injection, schedule: Q04DX003 (ip), vehicle: saline
[6] = dose: 100.0 mg/kg/injection, schedule: Q04DX002 (ip), vehicle: saline with Tween-80
[7] = dose: 200.0 mg/kg/injection, schedule: Q04DX002 (ip), vehicle: saline with Tween-80
[8] = dose: 400.0 mg/kg/injection, schedule: Q04DX002 (ip), vehicle: saline with Tween-80
[9] = dose: 100.0 mg/kg/injection, schedule: Q04DX003 (ip), vehicle: Klucel (hydroxypropylcellulose) (HPC)
[10] = dose: 200.0 mg/kg/injection, schedule: Q04DX003 (ip), vehicle: Klucel (hydroxypropylcellulose) (HPC)
[11] = dose: 100.0 mg/kg/injection, schedule: Q01DX009 (ip), vehicle: saline with Tween-80
[12] = dose: 200.0 mg/kg/injection, schedule: Q01DX009 (ip), vehicle: saline with Tween-80
[13] = dose: 400.0 mg/kg/injection, schedule: Q01DX009 (ip), vehicle: saline with Tween-80
[14] = dose: 400.0 mg/kg/injection, schedule: Q04DX003 (ip), vehicle: saline

Measured: T/C

C[N+]1(C)N=C(c2ccccc2)C=C1[O-]
inactive: dose: 100.0 mg/kg/injection, schedule: Q04DX002 (ip), vehicle: other 111 % of control | dose: 200.0 mg/kg/injection, schedule: Q04DX002 (ip), vehicle: other 106 % of control | dose: 400.0 mg/kg/injection, schedule: Q04DX002 (ip), vehicle: other 100 % of control

O=C(Nc1ccc(C2=NCCCN2)cc1)N1CCN(C(=O)Nc2ccc(C3=NCCCN3)cc2)CC1
inactive: dose: 10.0 mg/kg/injection, schedule: Q01DX Z (ip), vehicle: water 106 % of control | dose: 20.0 mg/kg/injection, schedule: Q01DX Z (ip), vehicle: water 120 % of control

COc1ccc(-c2c(O)c3cccc(-c4ccccc4)c3oc2=O)cc1
inactive: [1] 116 % of control | [2] 96 % of control | [3] 101 % of control | [4] 95 % of control | [5] 93 % of control

O=C(N/N=C/c1ccc(Cl)cc1Cl)C(O)C(O)C(O)C(O)CO (configuration not stated)
inactive: dose: 12.5 mg/kg/injection, schedule: Q04DX003 (ip), vehicle: saline with Tween-80 105 % of control | [1] 101 % of control | dose: 50.0 mg/kg/injection, schedule: Q01DX001 (ip), vehicle: saline with Tween-80 91 % of control | dose: 50.0 mg/kg/injection, schedule: Q01DX009 (ip), vehicle: saline with Tween-80 90 % of control | [2] 96 % of control and 92 % of control | dose: 100.0 mg/kg/injection, schedule: Q01DX001 (ip), vehicle: saline with Tween-80 104 % of control | [6] 92 % of control | dose: 200.0 mg/kg/injection, schedule: Q01DX001 (ip), vehicle: saline with Tween-80 90 % of control | [7] 86 % of control | [8] 97 % of control

O=C(c1ccncc1)n1cc2c(n1)CCCC2
inactive: [9] 87 % of control | [10] 92 % of control | dose: 400.0 mg/kg/injection, schedule: Q04DX003 (ip), vehicle: Klucel (hydroxypropylcellulose) (HPC) 95 % of control

O=C(CCCN1CCC(O)CC1)c1ccc(N2CC=C(c3ccccc3)CC2)cc1
inactive: dose: 100.0 mg/kg/injection, schedule: Q04DX002 (ip), vehicle: Klucel (hydroxypropylcellulose) (HPC) 104 % of control | dose: 200.0 mg/kg/injection, schedule: Q04DX002 (ip), vehicle: Klucel (hydroxypropylcellulose) (HPC) 100 % of control

O=S(=O)(NC1CCCC2C=CC=CC21)c1ccccc1 (configuration not stated)
inactive: [11] 96 % of control | [3] 93 % of control | [12] 102 % of control | dose: 200.0 mg/kg/injection, schedule: Q04DX003 (ip), vehicle: saline with Tween-80 92 % of control | [13] 88 % of control | dose: 400.0 mg/kg/injection, schedule: Q04DX003 (ip), vehicle: saline with Tween-80 95 % of control

O=C(/C=N/O)Nc1ccccc1
inactive: [11] 101 % of control | [12] 101 % of control | [13] 98 % of control

CCOP(=O)(OCC)OCCOCCOP(=O)(OCC)OCC
inactive: dose: 8.8 mg/kg/injection, schedule: Q01DX Z (ip), vehicle: saline 98 % of control | dose: 13.3 mg/kg/injection, schedule: Q01DX Z (ip), vehicle: saline 110 % of control | dose: 20.0 mg/kg/injection, schedule: Q01DX Z (ip), vehicle: saline 96 % of control

CC(C)(C)NCC1CCCC1=O (configuration not stated)
inactive: dose: 100.0 mg/kg/injection, schedule: Q04DX002 (ip), vehicle: gum acacia 101 % of control | dose: 200.0 mg/kg/injection, schedule: Q04DX002 (ip), vehicle: gum acacia 105 % of control

O=C(NNc1ccccc1)C1C2CC3OC(=O)C1C3C2 (configuration not stated)
inactive: [4] 93 % of control | [5] 98 % of control | [14] 96 % of control

O=C(CCl)Nc1cc(Cl)ccc1N1CCCC1
inactive: dose: 12.5 mg/kg/injection, schedule: Q01DX009 (ip), vehicle: acetone 100 % of control | dose: 25.0 mg/kg/injection, schedule: Q01DX009 (ip), vehicle: acetone 90 % of control | dose: 50.0 mg/kg/injection, schedule: Q01DX009 (ip), vehicle: acetone 90 % of control

O=C1C=CC(=O)c2c1ccc1c2[nH]c2ccccc21
inactive: [6] 113 % of control | [7] 90 % of control

S=P(c1ccccc1)(c1cccc2ccccc12)c1cccc2ccccc12
inactive: dose: 100.0 mg/kg/injection, schedule: Q01DX001 (ip), vehicle: saline 93 % of control | dose: 200.0 mg/kg/injection, schedule: Q01DX001 (ip), vehicle: saline 96 % of control | dose: 400.0 mg/kg/injection, schedule: Q01DX001 (ip), vehicle: saline 93 % of control

O=C(Nc1ccccc1)Sc1ccccc1
inactive: dose: 62.5 mg/kg/injection, schedule: Q01DX001 (ip), vehicle: Klucel (hydroxypropylcellulose) (HPC) 97 % of control

Cc1cccc(NC(=O)/C=N/O)c1C
inactive: [9] 98 % of control | [10] 98 % of control

COc1ccc(/C=N/NC(=O)c2ccc(N)cc2)c(OC)c1
inactive: dose: 100.0 mg/kg/injection, schedule: Q04DX002 (ip), vehicle: saline 101 % of control | dose: 200.0 mg/kg/injection, schedule: Q04DX002 (ip), vehicle: saline 108 % of control | dose: 400.0 mg/kg/injection, schedule: Q04DX002 (ip), vehicle: saline 97 % of control

Cc1ccc(N=Cc2cc(Cl)cc(Cl)c2OC(=O)c2ccccc2)cc1C
inactive: [6] 95 % of control | [7] 92 % of control | [8] 88 % of control

COC(=O)c1[nH]cnc1N1CC[N+](CCCl)=N1
inactive: dose: 37.5 mg/kg/injection, schedule: Q01DX009 (ip), vehicle: saline 116 % of control | dose: 37.5 mg/kg/injection, schedule: Q04DX003 (ip), vehicle: saline 100 % of control | dose: 75.0 mg/kg/injection, schedule: Q01DX001 (ip), vehicle: saline 98 % of control | dose: 75.0 mg/kg/injection, schedule: Q01DX009 (ip), vehicle: saline 95 % of control | dose: 75.0 mg/kg/injection, schedule: Q04DX003 (ip), vehicle: saline 107 % of control | dose: 150.0 mg/kg/injection, schedule: Q01DX001 (ip), vehicle: saline 100 % of control | dose: 150.0 mg/kg/injection, schedule: Q01DX009 (ip), vehicle: saline 103 % of control | dose: 150.0 mg/kg/injection, schedule: Q04DX003 (ip), vehicle: saline 102 % of control

COc1c2c([n+](C)c3c(OC)cccc13)OC(C(C)C)C2 (configuration not stated)
inactive: dose: 0.5 mg/kg/injection, schedule: Q01DX009 (ip), vehicle: acetone 100 % of control | dose: 0.75 mg/kg/injection, schedule: Q01DX009 (ip), vehicle: saline 103 % of control | dose: 1.0 mg/kg/injection, schedule: Q01DX001 (ip), vehicle: saline 96 % of control | dose: 1.0 mg/kg/injection, schedule: Q01DX009 (ip), vehicle: acetone 120 % of control | dose: 1.0 mg/kg/injection, schedule: Q04DX003 (ip), vehicle: Klucel (hydroxypropylcellulose) (HPC) 97 % of control | dose: 1.0 mg/kg/injection, schedule: Q04DX003 (ip), vehicle: acetone 108 % of control | dose: 1.5 mg/kg/injection, schedule: Q01DX009 (ip), vehicle: saline 92 % of control | dose: 2.0 mg/kg/injection, schedule: Q01DX001 (ip), vehicle: saline 96 % of control | dose: 2.0 mg/kg/injection, schedule: Q04DX003 (ip), vehicle: Klucel (hydroxypropylcellulose) (HPC) 105 % of control | dose: 2.0 mg/kg/injection, schedule: Q04DX003 (ip), vehicle: acetone 119 % of control | dose: 4.0 mg/kg/injection, schedule: Q01DX001 (ip), vehicle: saline 98 % of control

BrCC(CBr)(CBr)CBr
inactive: dose: 100.0 mg/kg/injection, schedule: Q01DX009 (ip), vehicle: saline 103 % of control | [4] 93 % of control | dose: 200.0 mg/kg/injection, schedule: Q01DX009 (ip), vehicle: saline 97 % of control | [5] 100 % of control | [14] 101 % of control

CC(C)c1ccc(/C(=N\NC(N)=S)C2CC2)cc1
inactive: dose: 1.0 mg/kg/injection, schedule: Q01DX Z (ip), vehicle: methylcellulose (MC) 93 % of control | dose: 2.0 mg/kg/injection, schedule: Q01DX Z (ip), vehicle: methylcellulose (MC) 91 % of control | dose: 5.0 mg/kg/injection, schedule: Q01DX Z (ip), vehicle: methylcellulose (MC) 94 % of control | dose: 10.0 mg/kg/injection, schedule: Q01DX Z (ip), vehicle: methylcellulose (MC) 102 % of control
